Experiments:
[1] = Feedlot steers: performance and carcass; type: in vivo, steers (cattle)
Description: Seventy-two medium-frame steers, with an average weight of 578 lbs., were allotted to 12 pens of 6 animals each. A common basal diet was fed ad libitum to all cattle. This consisted of 48.9% cracked corn, 24.4% ground corn cobs, 17.8% expeller Soybean meal, 7.0% molasses (liquid), 1.3% limestone, 0.25% dicalcium phosphate, 2% salt, 0.02% trace mineral premix, and 0.1% vitamin A premix for the first 58 days of the experiment, and was changed to 54.3% cracked corn and 12.8% expeller soybean meal for the remaining 103 days of the experiment. Three pens were assigned to each treatment. The treatments consisted of four levels of Ca-KIC in a pelleted supplement: 0%, 0.02%, 0.07%, and 0.20% of the basal diet (0.05% control pellets, 0.04% KIC pellets, 0.14% KIC pellets, and 0.40% KIC pellets). The pellets were preweighted and top-dressed on the basal diet twice daily. After 58 days, the cattle on the 0.20% KIC were removed from the experiment. The cattle were not implanted with a growth promotant nor were ionophores included in the diet. The cattle were placed in the feedlot and fed a growing ration for 5 weeks prior to the start of the experiment. The cattle were weighed on 2 consecutive days at the beginning and end of the experiment, and every 14 days during the trial. The cattle were sold through a commercial beef processing plant when they were approaised by visual examination to grade Choice. Loin eye area and fat thickness over the loin were measured on each carcass. Quality and yield grades, and percent kidney, heart, and lepvic (KHP) fat were estimated by the federal graders.
Therefore, an attempt was made to protect KIC from ruminal degradation. KIC pellets, resistant to rumen degradation, were made by mixing zein, ethanol, KIC, limestone, bentonite and water in a ratio of 8.3:7.4:5.2:3:2:1. This mixture was extruded through a die of 15 mm directly into a vat of liquid nitrogen. The shattered pellets were spread out and allowed to air-dry for two days. The dried pellets were coated with zein (2% w/w) by spraying with a 30% zein solution made in 80% ethanol. The pellets again were air-dried. Control pellets were made similar to the KIC pellets except that the mixture was zein, limestone, ethanol, bentonite and water in a ratio of 12:12:7.5:2.7:1. When KIC pellets were placed in the rumen (nylon bag technique), 45% of the KIC added was present in the bags after 36 hr of rumen digestion.
KIC was obtained from SOBAC, Paris, France. Zein was purchased from Freeman Industries, Tuckahoe, N.Y. Each experiment was statistically analyzed by analysis of variance with three pens per treatment.

white blood cells = assay: White blood cell number and differential, cattle (experiment 3); type: in vivo, castrated male cattle
Procedure: In experiment 3 72 castrated male cattle were allotted to 12 pens of 6 animals each. Three pens were assigned to each treatment: 0.0% KIC, 0.02% KIC, 0.07% KIC, and 0.20% KIC. Animals were fed ad libitum the respective diets for 6 weeks. At the end of the 6-233k periods, 100-ml blood samples were collected from each animal, and lymphocyte and neutrophil function were evaluated.
The basal cattle diet (experiment 3) consisted of 49% corn, 24% corn-cobs, 18% soybean meal, 7% molasses, 1.3% limestone, 0.25% dicalcium phosphate, 0.23% salt, 0.02% trace-mineral premix, and 0.11% vitamin premix. The basal diet was supplemented with w/w 0.05% control pellets, 0.04% KIC pellets, or 0.4% KIC pellets. All animals consumed ~10 kg of feed per day, resulting in ~0, 2, 7, or 20 g of Ca-KIC consumed per animal per day or 0, 0.02, 0.07, and 0.2% KIC of the total diet.
KIC pellets were made by mixing zein, ethanol, KIC, limestone, bentonite, and water in a ratio of […]. This mixture was extruded through a die of 15 mm directly into a vat of liquid nitrogen. The shattered pellets were spread out and allowed to air-dry for 2 days. The pellets were coated with zein (2% w/w) by spraying with a 30% zein solution made in 80% ethanol. The pellets again were air-dryed. Control pellets were made similarly to the KIC pellets except that the mixture was zein, limestone, ethanol, bentonite, and water in a ratio of 12:12:7.5:2.7:1. When KIC pellets were placed in the rumen (nylon bag technique), […] of the KIC added was present in the bags after 24 hr of rumen fermentation. It was estimated that uncoated KIC was 95% degraded in the rumen.
Blood was collected by jugular venapuncture into acid-citrate-dextrose anticoagulant. Lymphocytes and neutrophils were isolated, and lymphocyte blastogenesis and neutrophil function evaluated. KIC was obtained from SOBAC, Paris, France. Zein was purchased from Freeman Industries, Tuckahoe, NY. Each experiment was statistically analyzed by analysis of variance. In sheep experiments, individual animals were the experimental units, whereas pen means were analyzed in the cattle experiment.
^2 Total white blood cell number (WBC) is the cells per mm^3.

With CC(C)CC(=O)C(=O)O [KIC, alpha-ketoisocaproate] the Feed conversion improvement ([1]; 161-day trial, 0.02% KIC, NS) was 8%, the daily gain increase ([1]; 161-day trial, 0.02% KIC, p<0.01) was 14% and the daily gain increase ([1]; 161-day trial, 0.07% KIC, (NX)) was 7%. The Feed conversion improvement ([1]; 161-day trial, 0.07% KIC, NS) was 6%, the Daily gain ([1]; 58 days, 0.07% dietary KIC (0%: 2.80)) was 3.12 lb and the Feed/Gain ([1]; 58 days, 0.07% dietary KIC (0%: 5.7)) was 5.2. The Daily intake ([1]; 58 days, 0.07% dietary KIC (0%: 16.0)) was 16.3 lb DM/day, the Ending wt. ([1]; 58 days, 0.07% dietary KIC (0%: 756)) was 770 lb and the Daily gain ([1]; 58 days, 0.20% dietary KIC (0%: 2.80)) was 3.19 lb. It also gave a Feed/Gain ([1]; 58 days, 0.20% dietary KIC (0%: 5.7)) of 5.2, a Daily intake ([1]; 58 days, 0.20% dietary KIC (0%: 16.0)) of 16.3 lb DM/day and an Ending wt. ([1]; 58 days, 0.20% dietary KIC (0%: 756)) of 779 lb. It also gave a Daily gain ([1]; 58 days, % dietary KIC printed 0.2 (0%: 2.80), * p<.1) of 3.36 lb, a Feed/Gain ([1]; 58 days, % dietary KIC printed 0.2 (0%: 5.7), ** p<.05) of 5.0 and a Daily intake ([1]; 58 days, % dietary KIC printed 0.2 (0%: 16.0)) of 16.8 lb DM/day. The Ending wt. ([1]; 58 days, % dietary KIC printed 0.2 (0%: 756)) was 786 lb, the Daily gain ([1]; 161 days, 0.02% dietary KIC (0%: 2.66), *** p<.01) was 3.03 lb and the Feed/Gain ([1]; 161 days, 0.02% dietary KIC (0%: 8.0)) was 7.4. For the same molecule, the Daily intake ([1]; 161 days, 0.02% dietary KIC (0%: 21.2)) was 22.6 lb DM/day, the Ending wt. ([1]; 161 days, 0.02% dietary KIC (0%: 1016)) was 1068 lb and the Daily gain ([1]; 161 days, 0.07% dietary KIC (0%: 2.66)) was 2.85 lb. For the same molecule, the Feed/Gain ([1]; 161 days, 0.07% dietary KIC (0%: 8.0)) was 7.5, the Daily intake ([1]; 161 days, 0.07% dietary KIC (0%: 21.2)) was 21.6 lb DM/day and the Ending wt. ([1]; 161 days, 0.07% dietary KIC (0%: 1016)) was 1035 lb. For the same molecule, the Feed conversion improvement ([1]; first 58 days, 0.02% KIC, p<0.05) was 13%, the daily gain increase ([1]; first 58 days, 0.02% KIC, p<0.07) was 20% and the daily gain increase ([1]; first 58 days, 0.07% KIC, NS) was 11%. For the same molecule, the Feed conversion improvement ([1]; first 58 days, 0.07% KIC, p<0.17) was 9%, the Feed conversion improvement ([1]; first 58 days, 0.20% KIC, p<0.11) was 10% and the daily gain increase ([1]; first 58 days, 0.20% KIC, p<0.18) was 14%. The Feed conversion improvement ([1]; long-term trial, summary) was “up to 8%”, the daily gain increase ([1]; long-term trial, summary) was “up to 14%” and the “% SEG” value (white blood cells; Exp. 3, oral coated 0.02% KIC (control 28)) was 29% of Total WBC. For the same molecule, the “% LYM” value (white blood cells; Exp. 3, oral coated 0.02% KIC (control 52)) was 63% of Total WBC, the “% EOS” value (white blood cells; Exp. 3, oral coated 0.02% KIC (control .7)) was “.9% of Total WBC” and the “% SEG” value (white blood cells; Exp. 3, oral coated 0.07% KIC (control 28)) was 24% of Total WBC. For the same molecule, the “% LYM” value (white blood cells; Exp. 3, oral coated 0.07% KIC (control 52)) was 69% of Total WBC, the “% EOS” value (white blood cells; Exp. 3, oral coated 0.07% KIC (control .7)) was “.7% of Total WBC” and the “% SEG” value (white blood cells; Exp. 3, oral coated 0.20% KIC (control 28)) was 24% of Total WBC. For the same molecule, the “% LYM” value (white blood cells; Exp. 3, oral coated 0.20% KIC (control 52)) was 52% of Total WBC and the “% EOS” value (white blood cells; Exp. 3, oral coated 0.20% KIC (control .7)) was 1.1% of Total WBC.

From patent publication US4835185A, “Immunomodulator for improving commercial performance of domestic animals” (Iowa State University Research Foundation, Inc., priority 1987, dated 1989)
